# Earlier results, collected in patent US9895453B1, “Shiny ultrasound gel” (priority 2016, dated 2018).
# Tests used:
# [1] = test system: C. ablicans
# [2] = test system: Ps. cepacia; settings: initial inoculum 2.7 × 10^6 per gram product, 0.7% Suttocide A
# [3] = test system: A. niger
# [4] = test system: Staph aureus
# [5] = test system: Ps. aeruginosa
# [6] = test system: E. Coli
compound,measurement,setting,value
"O=C([O-])CNCO.[Na+] [Suttocide® A, Sodium Hydroxymethylglycinate]",organism growth (count) at 48 hours,"[1]; C. ablicans, 48 hours, initial inoculum 4.3 × 10^6 per gram product, 0.7% Suttocide A",<10
same,organism growth (count) at 7 days,"[1]; C. ablicans, 7 days, initial inoculum 4.3 × 10^6 per gram product, 0.7% Suttocide A",<10
same,organism growth (count) at 28 days,"[1]; C. ablicans, 28 days, initial inoculum 4.3 × 10^6 per gram product, 0.7% Suttocide A",<10
same,kills at a concentration of,"[1]; candida albicans, TABLE 1",0.7%
same,organism growth (count) at 48 hours,[2]; 48 hours,<10
same,organism growth (count) at 7 days,[2]; 7 days,<10
same,organism growth (count) at 28 days,[2]; 28 days,<10
same,organism growth (count) at 48 hours,"[3]; A. niger, 48 hours, initial inoculum 8.0 × 10^6 per gram product, 0.7% Suttocide A",<10
same,organism growth (count) at 7 days,"[3]; A. niger, 7 days, initial inoculum 8.0 × 10^6 per gram product, 0.7% Suttocide A",<10
same,organism growth (count) at 28 days,"[3]; A. niger, 28 days, initial inoculum 8.0 × 10^6 per gram product, 0.7% Suttocide A",<10
same,kills at a concentration of,"[3]; Aspergillus niger (Aspergillus brasiliensis), TABLE 1",0.7%
same,organism growth (count) at 48 hours,"[4]; Staph aureus, 48 hours, initial inoculum 7.3 × 10^6 per gram product, 0.7% Suttocide A",<10
same,organism growth (count) at 7 days,"[4]; Staph aureus, 7 days, initial inoculum 7.3 × 10^6 per gram product, 0.7% Suttocide A",<10
same,organism growth (count) at 28 days,"[4]; Staph aureus, 28 days, initial inoculum 7.3 × 10^6 per gram product, 0.7% Suttocide A",<10
same,kills at a concentration of,"[4]; Staphylococcus aureus, TABLE 1",0.7%
same,organism growth (count) at 48 hours,"[5]; Ps. aeruginosa, 48 hours, initial inoculum 9.5 × 10^6 per gram product, 0.7% Suttocide A",<10
same,organism growth (count) at 7 days,"[5]; Ps. aeruginosa, 7 days, initial inoculum 9.5 × 10^6 per gram product, 0.7% Suttocide A",<10
same,organism growth (count) at 28 days,"[5]; Ps. aeruginosa, 28 days, initial inoculum 9.5 × 10^6 per gram product, 0.7% Suttocide A",<10
same,kills at a concentration of,"[5]; Pseudomonas aeruginosa, TABLE 1",0.7%
same,organism growth (count) at 48 hours,"[6]; E. Coli, 48 hours, initial inoculum 6.0 × 10^6 per gram product, 0.7% Suttocide A",<10
same,organism growth (count) at 7 days,"[6]; E. Coli, 7 days, initial inoculum 6.0 × 10^6 per gram product, 0.7% Suttocide A",<10
same,organism growth (count) at 28 days,"[6]; E. Coli, 28 days, initial inoculum 6.0 × 10^6 per gram product, 0.7% Suttocide A",<10
same,kills at a concentration of,"[6]; Escheria coli, TABLE 1",0.7%
